In US11191735B2, “Arginine silicate for periodontal disease” (NUTRITION 21, LLC, priority 2015, dated 2021):
Read-outs that look alike come from different tables or passages of the source. Marks after values point to notes of the source that are not given here.

Key:
[1] = tested on: experimental periodontal disease (ligature model); settings: for ALP (serum) / CRP (serum) / Ca (serum) / P (serum): rats
Protocol: (§1) All animals and surgical procedures were handled in accordance with guidelines of the Chancellor's Animal Research Committee of the Office for Protection of Research Subjects at the University of Inonu, Malatya, Turkey (2013/A-12). Fifty-two (2-month-old) female Sprague-Dawley rats weighing […] (Experimental Research Center of Inonu University) were kept in temperature-controlled cages (approximately 25° C.), exposed to a 24-hr light-dark cycle of equal time, and had free access to water and food ad libitum.
(§2) The fifty-two rats were randomly divided into four groups: the non-ligated treatment (Control) group (n=13), the ligature-only (L) group (n=13), the ligature plus ASI (“arginine-silicate-inositol;” Nutrition 21, NY, USA, see, e.g. U.S. Pat. Nos. 5,707,970 and 7,576,132) with dose of 1.81 mg/kg of diet group (designated “ASI I”), (n=13), the ligature plus ASI with dose of 3.62 mg/kg of diet group (designated “ASI II”) (n=13).
(§3) For all the studies described herein, the well-characterized ligature model of placing a sterile wire ligature around the crown of the right first maxillary molar was utilized. Rats were anesthetized with Rompun®, 10 mg/kg ve Xylazine®, 40 mg/kg ketamin, and a sterile 28-gauge wire ligature was placed around the cervical portion of the right first molar. Animals continued to receive basal diet or basal diet supplemented with 1.81 or 3.62 […] (Proctor et al., 2005) for 8 weeks before ligature placement.
(§4) Animals were monitored weekly to ensure presence of the ligature, and the ligature was adjusted if necessary. At the end of the experiment, animals were euthanized, blood was collected via cardiac puncture, and serum biomarkers including Ca, Mg, phosphorus, alkaline phosphatase, and CRP (C-reactive protein) were measured. Whole maxillas were removed, placed in 10% formalin for 48 hours, and stored in 70% ethanol.

[2] = tested on: IL-1β, MMP-8, RANK, RANKL, OPG, MPO expression levels from periodontal tissue; settings: for IL-1β protein level / MMP-8 protein level / MPO protein level / OPG protein level / RANK protein level / RANKL protein level: control = 100
From the text: FIG. 1B depicts western blot strips Il-1B, MMP-8, RANK, RANK-L, OPG and MPO expression levels from periodontal tissue.
as §1, §2, §3, §4

[3] = tested on: experimental periodontal disease (ligature model); settings: for ICI Dense, animals / ICI Little visible, animals / ICI Slightly visible, animals: n=13
Protocol: as §1, §2, §3
A histologic evaluation was performed by a single examiner (I.O.) who was masked to the identity of the samples. The specimens were fixed in a 10% neutral-buffered formalin solution and demineralized in an aqueous 10% formic acid solution. The specimens were then dehydrated, embedded in paraffin, and sectioned along the molars in a mesiodistal plane for hematoxylin and eosin staining, as described by Toker et al. Light microscopy (Nikon, Tokyo, Japan), and assessment was performed on the two sections with a thickness of about […], corresponding to the buccal and lingual areas between the first and second molars where ligatures had been placed.
The areas of alveolar bone and interdental septum were analyzed under light microscopy, considering parameters including inflammatory cell infiltration (“ICI”) of the periodontal tissues, existing resorption lacunae (osteoclast surfaces), osteoblastic activity (forming surfaces) and the number of osteoclasts. […] Osteoclasts were counted based on their morphology.

[4] = tested on: experimental periodontal disease (ligature model)
Protocol: as §1, §2, §3
Bones were imaged by micro-computed tomographic (μCT) scanning (SkyScan1172 Compact MKT (Kontich, Belgium)) at 16-μm resolution, and volumetric data were converted to DICOM format and imported in the Recon 1.6.9.4 SkyScan (Contich, Belgium) to generate 3D and multiplanar reconstructed images. An oral and maxillofacial radiologist (ST), blinded to the specific animal treatment, evaluated the μCT images of all animals to identify and score bony changes and performed all linear measurements using Recon software tools.
To quantify the amount of bone loss induced by experimental periodontal disease (PD), the imaged volume was oriented with the nasal cavity floor parallel to the horizontal plane and the midpalatal suture parallel to the midsagittal plane. Then the volume was angled such that the long axis of the distal root of the first molar (D1) and the mesial root of the second molar (M2) were vertical to the horizontal plane. Then the distance between the cementoenamel junction (CEJ) and the alveolar bone crest (ABC) was measured at the center of D1 and M2. To quantitatively assess changes in the width of the buccal alveolar outline on axial slices, the imaged volume was oriented such that the floor of the nasal cavity was parallel to the horizontal plane and the midpalatal suture was parallel to the midsagittal plane. Then the shortest distance from the buccal surface of the root to the buccal outline of the alveolar ridge was measured for the mesial and distal roots of the first and second molars at the level of the hard palate.

[5] = tested on: early to mild periodontitis
From the text: The study group comprises ten systemically healthy subjects with early to mild periodontitis. […] Prior to any treatment procedure, oral hygiene instructions (OHI) are given. Each quadrant of the subjects is randomly assigned to one of the following groups: (A) scaling and root planning combined with daily administration of arginine silicate post-treatment, (B) scaling and root planning alone, (C) daily administration of arginine silicate alone, and (D) OHI alone.
Subjects are re-examined at one week, four weeks, eight weeks, and 12 weeks.

gingivitis = test: Study in patients with gingivitis (Example 4); assay type: in vivo, human
Protocol: 20 patients with gingivitis (having at least three of the following symptoms: swollen gums, bright red or purple gum tissue, gum tissue that is sensitive to touch, bleeding gums, bad breath) are studied. Five patients are administered once-daily arginine silicate (I); five patients are topically administered once-daily arginine silicate to the oral cavity (II); five patients are administered chlorhexidine mouthwash for twice-daily use (III); and five patients are administered standard over-the-counter mouthwash for twice daily use (IV).
Patients are evaluated at four weeks, eight weeks, and twelve weeks. […] The trial is ceased at twelve weeks to avoid side effects from the chlorhexidine treatment.

[6] = L + ASI I: ligature plus ASI, 1.81 mg/kg of diet
[7] = L + ASI II: ligature plus ASI, 3.62 mg/kg of diet

arginine silicate inositol [ASI]
serum calcium levels ([1]; ASI II group (3.62 mg/kg of diet)): significantly reduced | serum CRP levels in comparison to the induced periodontitis group ([1]; ASI treatment groups (both doses)): significantly lower | ALP (serum) [1, 6]: 440.31 ± 69.93 U/L | CRP (serum) [1, 6]: 0.16 ± 0.07^b mg/dl | Ca (serum) [1, 6]: 10.37 ± 0.32 mg/dL | P (serum) [1, 6]: 8.35 ± 1.82 mg/dL | ALP (serum) [1, 7]: 380.54 ± 85.36 U/L | CRP (serum) [1, 7]: 0.18 ± 0.06^b mg/dl | Ca (serum) [1, 7]: 9.78 ± 0.66^c mg/dl | P (serum) [1, 7]: 7.82 ± 1.61 mg/dL | levels for IL-1β and MPO in the ASI II group in comparison to the ASI I group ([2]; 3.62 vs 1.81 mg/kg of diet): significantly lower | levels for IL-1β, MMP-8, RANK, RANKL, OPG, MPO in comparison to the periodontitis group ([2]; ASI groups (both doses)): significantly lower | IL-1β protein level ([2]; L + ASI I: 1.81 mg/kg of diet): 142.5 ± 2.53^a,b | MMP-8 protein level ([2]; L + ASI I: 1.81 mg/kg of diet): 166.79 ± 7.86^a,b | MPO protein level ([2]; L + ASI I: 1.81 mg/kg of diet): 180 ± 2.97^a,b | OPG protein level ([2]; L + ASI I: 1.81 mg/kg of diet): 72.87 ± 4.67^a,b | RANK protein level ([2]; L + ASI I: 1.81 mg/kg of diet): 189.27 ± 5.3^a,b | RANKL protein level ([2]; L + ASI I: 1.81 mg/kg of diet): 150.11 ± 6.34^a,b | IL-1β protein level ([2]; L + ASI II: 3.62 mg/kg of diet): 111.24 ± 2.35^a,b,c | MMP-8 protein level ([2]; L + ASI II: 3.62 mg/kg of diet): 150.256 ± 11.6^a,b | MPO protein level ([2]; L + ASI II: 3.62 mg/kg of diet): 159.59 ± 13.09^a,b,c | OPG protein level ([2]; L + ASI II: 3.62 mg/kg of diet): 91.13 ± 3.04^a,b,c | RANK protein level ([2]; L + ASI II: 3.62 mg/kg of diet): 174.31 ± 9.82^a,b | RANKL protein level ([2]; L + ASI II: 3.62 mg/kg of diet): 138.35 ± 13.6^a,b | ICI (inflammatory cell infiltration) ([3]; ASI treatment (both doses)): significantly reduced | ICI Dense, animals ([3]; L + ASI I: 1.81 mg/kg of diet): 4 (%30.8) n (%) | ICI Little visible, animals ([3]; L + ASI I: 1.81 mg/kg of diet): 0 (%0) n (%) | ICI Slightly visible, animals ([3]; L + ASI I: 1.81 mg/kg of diet): 9 (%69.2) n (%) | ICI Dense, animals ([3]; L + ASI II: 3.62 mg/kg of diet): 2 (%15.4) n (%) | ICI Little visible, animals ([3]; L + ASI II: 3.62 mg/kg of diet): 0 (%0)^ n (%) | ICI Slightly visible, animals ([3]; L + ASI II: 3.62 mg/kg of diet): 11 (%84.6) n (%) | bone mineral density with respect to the controls and the ASI I group ([4]; ASI II (3.62 mg/kg of diet)): significantly increased | BMD (bone mineral density) ([4]; L + ASI I: 1.81 mg/kg of diet): 0.78 ± 0.07 g/cm^2 | DCEJ-DCB/DCEJ-DRAP, rate of bone loss ([4]; L + ASI I: 1.81 mg/kg of diet): 0.41 ± 0.12 ^ | MCEJ-MCB/MCEJ-MRAP, rate of bone loss ([4]; L + ASI I: 1.81 mg/kg of diet): 0.49 ± 0.10 ^a,b | RF-RFCB/RF-RFAP, rate of bone loss ([4]; L + ASI I: 1.81 mg/kg of diet): 0.21 ± 0.04 ^a,b | BMD (bone mineral density) ([4]; L + ASI II: 3.62 mg/kg of diet): 0.85 ± 0.06 ^b g/cm^2 | DCEJ-DCB/DCEJ-DRAP, rate of bone loss ([4]; L + ASI II: 3.62 mg/kg of diet): 0.42 ± 0.08 ^ | MCEJ-MCB/MCEJ-MRAP, rate of bone loss ([4]; L + ASI II: 3.62 mg/kg of diet): 0.50 ± 0.10 ^a,b | RF-RFCB/RF-RFAP, rate of bone loss ([4]; L + ASI II: 3.62 mg/kg of diet): 0.22 ± 0.05 ^a,b | improvement in periodontal symptoms ([5]; group (A): scaling and root planning combined with daily arginine silicate, eight and twelve weeks): significant improvement | improvement in periodontal symptoms ([5]; group (A): scaling and root planning combined with daily arginine silicate, four weeks): significant improvement | improvement in periodontal symptoms ([5]; group (C): daily arginine silicate alone, eight and twelve weeks): significant improvement | improvement in periodontal symptoms ([5]; group (C): daily arginine silicate alone, four weeks): minimal improvement | reduction in symptoms of gingivitis (gingivitis; group (I): administered once-daily, eight and twelve weeks): most significant reduction | reduction in symptoms of gingivitis (gingivitis; group (I): administered once-daily, four weeks): significant reduction | reduction in symptoms of gingivitis (gingivitis; group (II): topically administered once-daily to the oral cavity, eight and twelve weeks): most significant reduction | reduction in symptoms of gingivitis (gingivitis; group (II): topically administered once-daily to the oral cavity, four weeks): significant reduction
